Test results published in patent US6472348B1, “Pyridone derivatives and herbicides” (Kumiai Chemical Industry Co., Ltd., priority 1996, dated 2002).

Legend:
monochoria (Mo) = assay: Test Example 1: herbicidal effects by paddy field soil treatment; assay type: in vivo; details: 100 g of the active ingredient per 10 ares, 21st day after the application, index 0-5 of Table 47;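 note: grade of growth control; 5 = at least 90%; 4 = 70 to 90%; 3 = 50 to 70%; 2 = 30 to 50%; 1 = 10 to 30%; 0 = under 10%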
Outline: (§1)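 Greenhouse pot test in flooded paddy soil, dosed at 100 g a.i. per 10 ares; effect scored on day 21.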

barnyardgrass (Ec) [1] = assay: as above; assay type: in vivo; details: 100 g of the active ingredient per 10 ares, 21st day after the application, index 0-5 of Table 47
Outline: as §1

bulrush (Sc) = assay: as above; assay type: in vivo; details: 100 g of the active ingredient per 10 ares, 21st day after the application, index 0-5 of Table 47;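 note: grade of growth control; 5 = at least 90%; 4 = 70 to 90%; 3 = 50 to 70%; 2 = 30 to 50%; 1 = 10 to 30%; 0 = under 10%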
Outline: as §1

pale smartweed (Po) [2] = assay: Test Example 11: crop plant selectivity by upland field foliage treatment (corn), herbicidal effects; assay type: in vivo; design: scale not given here; details: upland field foliage treatment (corn test), dose 1.6 g ai/10a, 14th day after treatment
Outline: (§2)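 Corn and the weed species were sown together in sand-filled pots and grown in a greenhouse for 2 weeks before foliar treatment. Herbicidal effect was scored on day 14 after treatment against a graded standard scale, with corn phytotoxicity scored alongside.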

[3] = test system: common lambsquarters (Ch); assay: as above; assay type: in vivo; design: scale not given here; details: upland field foliage treatment (corn test), dose 1.6 g ai/10a, 14th day after treatment
Outline: as §2

slender amaranth (Am) [4] = assay: as above; assay type: in vivo; design: scale not given here; details: upland field foliage treatment (corn test), dose 1.6 g ai/10a, 14th day after treatment
Outline: as §2

China jute (Ab) [5] = assay: as above; assay type: in vivo; design: scale not given here; details: upland field foliage treatment (corn test), dose 1.6 g ai/10a, 14th day after treatment
Outline: as §2

corn (Ze) [6] = assay: Test Example 11: crop plant selectivity by upland field foliage treatment (corn), phytotoxicity; details: upland field foliage treatment, dose 1.6 g ai/10a, 14th day after treatment
Outline: as §2

pale smartweed (Po) [7] = assay: Test Example 2: herbicidal effects by upland field soil treatment; assay type: in vivo; details: 100 g of the active ingredient per 10 ares;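 note: grade of growth control; 5 = at least 90%; 4 = 70 to 90%; 3 = 50 to 70%; 2 = 30 to 50%; 1 = 10 to 30%; 0 = under 10%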
Excerpt: (§3) (Test on Herbicidal Effects by Upland Field Soil Treatment)

barnyardgrass (Ec) [8] = assay: as above; assay type: in vivo; details: 100 g of the active ingredient per 10 ares
Excerpt: as §3

[9] = test system: common lambsquarters (Ch); assay: as above; assay type: in vivo; details: 100 g of the active ingredient per 10 ares
Excerpt: as §3

Digitaria ciliaris (Di) = assay: as above; assay type: in vivo; details: 100 g of the active ingredient per 10 ares;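 note: grade of growth control; 5 = at least 90%; 4 = 70 to 90%; 3 = 50 to 70%; 2 = 30 to 50%; 1 = 10 to 30%; 0 = under 10%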
Excerpt: as §3

slender amaranth (Am) [10] = assay: as above; assay type: in vivo; details: 100 g of the active ingredient per 10 ares
Excerpt: as §3

rice flatsedge (Ci) [11] = assay: as above; assay type: in vivo; details: 100 g of the active ingredient per 10 ares
Excerpt: as §3

wheat (Tr) = assay: Test Example 5: crop plant selectivity by upland field soil treatment (wheat), phytotoxicity; assay type: in vivo; design: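 grade of crop injury; 5 = at least 90%; 4 = 70 to 90%; 3 = 50 to 70%; 2 = 30 to 50%; 1 = 10 to 30%; 0 = under 10%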; details: dose 6.3 g ai/10a, 21st day after application
Outline: (§4)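 A greenhouse pot test in which wheat and weeds share sand-filled pots; after the soil application, damage is graded against set standards three weeks later.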

corn (Ze) [12] = assay: Test Example 7: crop plant selectivity by upland field soil treatment (corn), phytotoxicity; assay type: in vivo; design: scale not given here; details: dose 6.3 g ai/10a, 21st day after application
Outline: (§5)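 Scoring of weed kill and corn injury was done on day 21 after the application, using defined standards. Before that, sown seeds in sand-filled pots were covered with soil, treated, and grown in a greenhouse.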

pale smartweed (Po) [13] = assay: Test Example 6: crop plant selectivity by upland field soil treatment (soybean), herbicidal effects; assay type: in vivo; design: scale not given here; details: dose 6.3 g ai/10a, 21st day after application
Outline: (§6)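 Pre-emergence soil treatment; sand-filled pots, seeds sown then soil-covered; greenhouse culture; visual rating of weed control and soybean injury on day 21 post-application per standard scale.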

green foxtail (Se) [14] = assay: as above; assay type: in vivo; design: scale not given here; details: dose 6.3 g ai/10a, 21st day after application
Outline: as §6

[15] = test system: common lambsquarters (Ch); assay: as above; assay type: in vivo; design: scale not given here; details: dose 6.3 g ai/10a, 21st day after application
Outline: as §6

slender amaranth (Am) [16] = assay: as above; assay type: in vivo; design: scale not given here; details: dose 6.3 g ai/10a, 21st day after application
Outline: as §6

China jute (Ab) [17] = assay: as above; assay type: in vivo; design: scale not given here; details: dose 6.3 g ai/10a, 21st day after application
Outline: as §6

Diaitaria ciliaris (Di) = assay: Test Example 3: herbicidal effects by upland field foliage treatment; assay type: in vivo; design: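 grade of growth control; 5 = at least 90%; 4 = 70 to 90%; 3 = 50 to 70%; 2 = 30 to 50%; 1 = 10 to 30%; 0 = under 10%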
Outline: (§7)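 Scoring used a standard effect scale on the 14th day post-treatment, with plants held in a greenhouse throughout. Foliar application was made to weeds raised from seed in sand-filled pots for 2 weeks.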

pale smartweed (Po) [18] = assay: as above; assay type: in vivo; design: scale not given here
Outline: as §7

barnyardgrass (Ec) [19] = assay: as above; assay type: in vivo; design: scale not given here
Outline: as §7

[20] = test system: common lambsquarters (Ch); assay: as above; assay type: in vivo; design: scale not given here
Outline: as §7

slender amaranth (Am) [21] = assay: as above; assay type: in vivo; design: scale not given here
Outline: as §7

rice flatsedge (Ci) [22] = assay: as above; assay type: in vivo; design: scale not given here
Outline: as §7

pale smartweed (Po) [23] = assay: Test Example 4: crop plant selectivity by upland field soil treatment (cotton), herbicidal effects; assay type: in vivo; design: scale not given here; details: dose 6.3 g ai/10 a, evaluated 21st day after application
Outline: (§8)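 Upland soil-treatment selectivity test: scoring on day 21 post-application in a greenhouse, rating crop phytotoxicity on cotton and herbicidal effect on co-sown weeds. Seeds were sown in sand-filled pots and covered with soil before treatment.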

green foxtail (Se) [24] = assay: as above; assay type: in vivo; design: scale not given here; details: dose 6.3 g ai/10 a, evaluated 21st day after application
Outline: as §8

[25] = test system: common lambsquarters (Ch); assay: as above; assay type: in vivo; design: scale not given here; details: dose 6.3 g ai/10 a, evaluated 21st day after application
Outline: as §8

slender amaranth (Am) [26] = assay: as above; assay type: in vivo; design: scale not given here; details: dose 6.3 g ai/10 a, evaluated 21st day after application
Outline: as §8

China jute (Ab) [27] = assay: as above; assay type: in vivo; design: scale not given here; details: dose 6.3 g ai/10 a, evaluated 21st day after application
Outline: as §8

pale smartweed (Po) [28] = assay: Test Example 7: crop plant selectivity by upland field soil treatment (corn), herbicidal effects; assay type: in vivo; design: scale not given here; details: dose 6.3 g ai/10a, 21st day after application
Outline: as §5

green foxtail (Se) [29] = assay: as above; assay type: in vivo; design: scale not given here; details: dose 6.3 g ai/10a, 21st day after application
Outline: as §5

[30] = test system: common lambsquarters (Ch); assay: as above; assay type: in vivo; design: scale not given here; details: dose 6.3 g ai/10a, 21st day after application
Outline: as §5

slender amaranth (Am) [31] = assay: as above; assay type: in vivo; design: scale not given here; details: dose 6.3 g ai/10a, 21st day after application
Outline: as §5

China jute (Ab) [32] = assay: as above; assay type: in vivo; design: scale not given here; details: dose 6.3 g ai/10a, 21st day after application
Outline: as §5

pale smartweed (Po) [33] = assay: Test Example 5: crop plant selectivity by upland field soil treatment (wheat), herbicidal effects; assay type: in vivo; design: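 grade of growth control; 5 = at least 90%; 4 = 70 to 90%; 3 = 50 to 70%; 2 = 30 to 50%; 1 = 10 to 30%; 0 = under 10%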; details: dose 6.3 g ai/10a, 21st day after application
Outline: as §4

green foxtail (Se) [34] = assay: as above; assay type: in vivo; design: scale not given here; details: dose 6.3 g ai/10a, 21st day after application
Outline: as §4

[35] = test system: common lambsquarters (Ch); assay: as above; assay type: in vivo; design: scale not given here; details: dose 6.3 g ai/10a, 21st day after application
Outline: as §4

slender amaranth (Am) [36] = assay: as above; assay type: in vivo; design: scale not given here; details: dose 6.3 g ai/10a, 21st day after application
Outline: as §4

China jute (Ab) [37] = assay: as above; assay type: in vivo; design: scale not given here; details: dose 6.3 g ai/10a, 21st day after application
Outline: as §4

cotton (Go) = assay: Test Example 4: crop plant selectivity by upland field soil treatment (cotton), phytotoxicity; assay type: in vivo; design: scale not given here; details: dose 6.3 g ai/10 a, evaluated 21st day after application
Outline: as §8

soybean (Gl) = assay: Test Example 6: crop plant selectivity by upland field soil treatment (soybean), phytotoxicity; assay type: in vivo; design: scale not given here; details: dose 6.3 g ai/10a, 21st day after application
Outline: as §6

[38] = evaluated on the 21st day after application
[39] = 100 g active ingredient per 10 ares, evaluated 14th day after treatment
[40] = 100 g of the active ingredient per 10 ares, evaluated on the 14th day after treatment
[41] = 21st day after the application, index 0-5 of Table 47

Cn1c(C(F)(F)F)ccc(-c2c(F)cc(Cl)c3oc(C(=O)O)cc23)c1=O [Compound No. 4-26, 3-(2-carboxy-7-chloro-5-fluorobenzofuran-4-yl)-1-methyl-6-trifluoromethyl-2-(1H)-pyridone]
5: Herbicidal effects Mo (monochoria (Mo)) | Herbicidal effects Ec (barnyardgrass (Ec) [1]) | Herbicidal effects Sc (bulrush (Sc)) | Herbicidal effects Po (pale smartweed (Po) [2]) | Herbicidal effects Ch [3] | Herbicidal effects Am (slender amaranth (Am) [4]) | Herbicidal effects Ab (China jute (Ab) [5]) | Herbicidal effects Po (pale smartweed (Po) [7]; [38]) | Herbicidal effects Ec (barnyardgrass (Ec) [8]; [38]) | Herbicidal effects Ch [9, 38] | Herbicidal effects Di (Digitaria ciliaris (Di); [38]) | Herbicidal effects Am (slender amaranth (Am) [10]; [38]) | Herbicidal effects Ci (rice flatsedge (Ci) [11]; [38])
233 to 235 °C: melting point
1: Phytotoxicity Ze (corn (Ze) [6])

Cn1c(C(F)(F)F)ccc(-c2c(F)cc(Cl)c3oc(CBr)cc23)c1=O [Compound No. 4-7, 3-(2-bromomethyl-7-chloro-5-fluorobenzofuran-4-yl)-1-methyl-6-trifluoromethyl-2-(1H)-pyridone]
5: Herbicidal effects Po (pale smartweed (Po) [13]) | Herbicidal effects Se (green foxtail (Se) [14]) | Herbicidal effects Ch [15] | Herbicidal effects Am (slender amaranth (Am) [16]) | Herbicidal effects Ab (China jute (Ab) [17]) | Herbicidal effects Mo (monochoria (Mo)) | Herbicidal effects Ec (barnyardgrass (Ec) [1]) | Herbicidal effects Sc (bulrush (Sc)) | Herbicidal effects Di (Diaitaria ciliaris (Di); [39]) | Herbicidal effects Po (pale smartweed (Po) [18]; [39]) | Herbicidal effects Ec (barnyardgrass (Ec) [19]; [39]) | Herbicidal effects Ch [20, 39] | Herbicidal effects Am (slender amaranth (Am) [21]; [39]) | Herbicidal effects Ci (rice flatsedge (Ci) [22]; [39]) | Herbicidal effects Po (pale smartweed (Po) [23]) | Herbicidal effects Se (green foxtail (Se) [24]) | Herbicidal effects Ch [25] | Herbicidal effects Am (slender amaranth (Am) [26]) | Herbicidal effects Ab (China jute (Ab) [27]) | Herbicidal effects Po (pale smartweed (Po) [28]) | Herbicidal effects Se (green foxtail (Se) [29]) | Herbicidal effects Ch [30] | Herbicidal effects Am (slender amaranth (Am) [31]) | Herbicidal effects Ab (China jute (Ab) [32]) | Herbicidal effects Po (pale smartweed (Po) [33]) | Herbicidal effects Se (green foxtail (Se) [34]) | Herbicidal effects Ch [35] | Herbicidal effects Am (slender amaranth (Am) [36]) | Herbicidal effects Ab (China jute (Ab) [37]) | Herbicidal effects Po (pale smartweed (Po) [7]; [38]) | Herbicidal effects Ec (barnyardgrass (Ec) [8]; [38]) | Herbicidal effects Ch [9, 38] | Herbicidal effects Di (Digitaria ciliaris (Di); [38]) | Herbicidal effects Am (slender amaranth (Am) [10]; [38]) | Herbicidal effects Ci (rice flatsedge (Ci) [11]; [38])
1: Phytotoxicity Tr (wheat (Tr)) | Phytotoxicity Go (cotton (Go)) | Phytotoxicity Gl (soybean (Gl))
2: Phytotoxicity Ze (corn (Ze) [12])
142 to 144 °C: melting point

CNS(=O)(=O)c1cc(-c2ccc(C(F)(F)F)n(C)c2=O)c(F)cc1Cl [Compound No. 1-71, 3-(4-chloro-2-fluoro-5-methylsulfamoylphenyl)-1-methyl-6-trifluoromethyl-2(1H)-pyridone]
5: Herbicidal effects Mo (monochoria (Mo)) | Herbicidal effects Ec (barnyardgrass (Ec) [1]) | Herbicidal effects Sc (bulrush (Sc)) | Herbicidal effects Di (Diaitaria ciliaris (Di); [40]) | Herbicidal effects Po (pale smartweed (Po) [18]; [40]) | Herbicidal effects Ec (barnyardgrass (Ec) [19]; [40]) | Herbicidal effects Ch [20, 40] | Herbicidal effects Am (slender amaranth (Am) [21]; [40]) | Herbicidal effects Ci (rice flatsedge (Ci) [22]; [40]) | Herbicidal effects Po (pale smartweed (Po) [23]) | Herbicidal effects Se (green foxtail (Se) [24]) | Herbicidal effects Ch [25] | Herbicidal effects Am (slender amaranth (Am) [26]) | Herbicidal effects Ab (China jute (Ab) [27]) | Herbicidal effects Po (pale smartweed (Po) [33]) | Herbicidal effects Se (green foxtail (Se) [34]) | Herbicidal effects Ch [35] | Herbicidal effects Am (slender amaranth (Am) [36]) | Herbicidal effects Ab (China jute (Ab) [37]) | Herbicidal effects Po (pale smartweed (Po) [7]; [41]) | Herbicidal effects Ec (barnyardgrass (Ec) [8]; [41]) | Herbicidal effects Ch [9, 41] | Herbicidal effects Di (Digitaria ciliaris (Di); [41]) | Herbicidal effects Am (slender amaranth (Am) [10]; [41]) | Herbicidal effects Ci (rice flatsedge (Ci) [11]; [41])
150 to 151 °C: melting point
1: Phytotoxicity Go (cotton (Go))
2: Phytotoxicity Tr (wheat (Tr))
